What was measured:
GR = target: T1, GR (Homo sapiens, UniProt P04150); assay: GR transcriptional reporter assay, antagonist mode (CV1 cells); assay type: cell-based
T1 sequence (P04150 1-777): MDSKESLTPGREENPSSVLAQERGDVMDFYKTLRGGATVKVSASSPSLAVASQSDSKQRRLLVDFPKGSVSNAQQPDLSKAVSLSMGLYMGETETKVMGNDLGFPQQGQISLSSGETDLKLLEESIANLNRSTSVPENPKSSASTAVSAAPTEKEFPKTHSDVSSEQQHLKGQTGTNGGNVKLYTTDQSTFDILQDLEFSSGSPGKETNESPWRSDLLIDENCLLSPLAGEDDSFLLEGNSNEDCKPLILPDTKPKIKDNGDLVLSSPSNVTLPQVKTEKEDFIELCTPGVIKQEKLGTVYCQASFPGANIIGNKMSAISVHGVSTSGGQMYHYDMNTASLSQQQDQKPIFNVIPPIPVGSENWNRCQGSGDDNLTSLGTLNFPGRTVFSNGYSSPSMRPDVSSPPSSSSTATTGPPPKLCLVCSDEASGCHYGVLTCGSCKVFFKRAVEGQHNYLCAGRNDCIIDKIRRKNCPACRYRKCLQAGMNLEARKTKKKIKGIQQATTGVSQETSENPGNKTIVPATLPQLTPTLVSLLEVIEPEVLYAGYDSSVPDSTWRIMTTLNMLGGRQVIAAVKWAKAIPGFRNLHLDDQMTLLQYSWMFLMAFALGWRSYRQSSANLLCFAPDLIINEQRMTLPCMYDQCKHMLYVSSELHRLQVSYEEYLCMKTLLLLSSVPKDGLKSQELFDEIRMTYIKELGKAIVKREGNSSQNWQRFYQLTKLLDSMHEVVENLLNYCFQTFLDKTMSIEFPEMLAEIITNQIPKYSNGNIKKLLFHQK
Protocol: CV1 cells were maintained in MEM supplemented with 10% FBS. Transcriptional assays were performed by seeding 12 mL of cells at a density of 250,000 cells/mL into a T-75 cell culture flask in MEM supplemented with 5% charcoal-stripped serum and allowed to attach overnight. Cells were transiently transfected using FuGENE 6 (Roche Applied Science). […] Transfected cells were incubated overnight then split into four 96-well tissue culture plates and incubated for 4 hr followed by compound addition. […] The final agonist concentration used in the antagonist assays was 10 nM.

PR-A = target: T2, PR-A (Homo sapiens, UniProt P06401); assay: PR-A transcriptional reporter assay, antagonist mode (HEPG2 cells)
T2 sequence (P06401 1-769 isoform P06401-2): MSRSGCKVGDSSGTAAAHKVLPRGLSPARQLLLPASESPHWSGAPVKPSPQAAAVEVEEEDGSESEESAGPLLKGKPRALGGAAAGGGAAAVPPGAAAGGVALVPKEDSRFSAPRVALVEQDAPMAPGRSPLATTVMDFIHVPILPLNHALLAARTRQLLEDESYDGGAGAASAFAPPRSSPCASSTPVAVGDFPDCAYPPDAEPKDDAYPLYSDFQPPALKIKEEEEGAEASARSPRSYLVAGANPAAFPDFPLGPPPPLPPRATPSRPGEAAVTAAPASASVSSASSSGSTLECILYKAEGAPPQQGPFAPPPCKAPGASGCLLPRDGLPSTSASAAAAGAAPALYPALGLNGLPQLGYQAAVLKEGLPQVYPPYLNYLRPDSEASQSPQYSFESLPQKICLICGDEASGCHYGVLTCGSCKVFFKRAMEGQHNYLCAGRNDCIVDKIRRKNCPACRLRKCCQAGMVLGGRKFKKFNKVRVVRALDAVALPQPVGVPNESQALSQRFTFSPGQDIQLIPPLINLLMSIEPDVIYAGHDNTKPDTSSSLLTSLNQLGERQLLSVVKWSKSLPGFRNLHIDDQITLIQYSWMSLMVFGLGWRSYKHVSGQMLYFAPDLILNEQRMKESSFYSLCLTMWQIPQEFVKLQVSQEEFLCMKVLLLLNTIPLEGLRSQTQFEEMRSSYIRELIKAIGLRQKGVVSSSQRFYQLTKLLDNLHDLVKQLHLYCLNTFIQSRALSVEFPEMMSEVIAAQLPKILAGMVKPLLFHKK

ERα = ERα (Homo sapiens, UniProt P03372); assay: MCF7 3X ERE-LUC transcriptional reporter assay (ERα antagonist); conditions: 0.1 nM 17β-estradiol, 24 hr
Sequence of ERα (P03372 whole entry): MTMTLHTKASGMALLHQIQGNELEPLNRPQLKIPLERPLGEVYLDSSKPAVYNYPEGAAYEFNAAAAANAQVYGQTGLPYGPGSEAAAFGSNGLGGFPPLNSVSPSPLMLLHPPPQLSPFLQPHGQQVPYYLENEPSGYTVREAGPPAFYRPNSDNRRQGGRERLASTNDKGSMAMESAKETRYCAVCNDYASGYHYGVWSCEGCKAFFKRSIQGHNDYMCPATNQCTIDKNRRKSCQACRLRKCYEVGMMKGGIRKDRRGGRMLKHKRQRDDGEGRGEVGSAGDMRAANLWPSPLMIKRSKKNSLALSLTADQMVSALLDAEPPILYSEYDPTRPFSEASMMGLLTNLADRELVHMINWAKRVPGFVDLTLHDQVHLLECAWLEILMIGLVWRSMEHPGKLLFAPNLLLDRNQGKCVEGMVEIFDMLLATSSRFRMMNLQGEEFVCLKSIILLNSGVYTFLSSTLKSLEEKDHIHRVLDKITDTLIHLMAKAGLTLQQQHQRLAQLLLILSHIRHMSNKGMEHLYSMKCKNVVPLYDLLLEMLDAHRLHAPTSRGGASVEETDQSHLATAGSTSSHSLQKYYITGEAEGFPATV

AR = AR (Homo sapiens, UniProt P10275); assay: AR competitive radioligand binding assay (MDA-MB-453 cell lysate); conditions: 0.6 nM 3H-R1881
Sequence of AR (P10275 whole entry): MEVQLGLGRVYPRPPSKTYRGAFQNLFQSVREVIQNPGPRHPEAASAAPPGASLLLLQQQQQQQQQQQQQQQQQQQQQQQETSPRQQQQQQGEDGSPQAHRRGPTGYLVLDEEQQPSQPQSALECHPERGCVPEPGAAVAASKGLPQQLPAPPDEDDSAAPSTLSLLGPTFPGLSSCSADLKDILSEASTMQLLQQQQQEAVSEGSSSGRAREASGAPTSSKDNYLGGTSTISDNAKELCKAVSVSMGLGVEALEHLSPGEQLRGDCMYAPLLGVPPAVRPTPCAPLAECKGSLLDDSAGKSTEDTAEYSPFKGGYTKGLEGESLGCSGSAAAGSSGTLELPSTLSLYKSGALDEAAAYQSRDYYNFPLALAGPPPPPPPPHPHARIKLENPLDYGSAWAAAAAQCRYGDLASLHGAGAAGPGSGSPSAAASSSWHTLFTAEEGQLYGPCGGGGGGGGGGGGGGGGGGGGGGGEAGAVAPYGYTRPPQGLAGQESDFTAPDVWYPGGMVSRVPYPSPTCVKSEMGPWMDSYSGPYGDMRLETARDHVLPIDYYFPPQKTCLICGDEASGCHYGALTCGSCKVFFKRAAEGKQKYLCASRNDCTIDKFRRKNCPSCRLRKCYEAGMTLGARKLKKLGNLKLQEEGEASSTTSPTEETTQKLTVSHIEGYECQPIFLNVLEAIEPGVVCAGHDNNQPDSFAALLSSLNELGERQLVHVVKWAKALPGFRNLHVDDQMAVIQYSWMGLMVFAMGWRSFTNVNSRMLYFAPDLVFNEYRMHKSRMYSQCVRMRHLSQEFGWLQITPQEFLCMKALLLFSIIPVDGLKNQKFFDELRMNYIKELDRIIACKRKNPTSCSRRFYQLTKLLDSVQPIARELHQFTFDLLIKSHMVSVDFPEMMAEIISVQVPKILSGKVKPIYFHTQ
Protocol: After reaching 90% confluence, cells were harvested, resuspended in TEGM (10 mM TrisHCl pH 7.2, 1 mM EDTA, 10% glycerol, 1 mM β-mercaptoethanol, 10 mM Sodium Molybdate), and frozen in liquid nitrogen in 10 mL aliquots containing 2 × 10^7 cells/mL. […] Reactions were incubated at 4°C overnight. Bound and unbound ligands were separated by ultrafiltration using a Unifilter-96 GF/C filter plate (Perkin Elmer). Bound ^3H-R1881 was eluted in 30 μL/well Microscint-20 and quantified using a scintillation counter (Top Count).

[1] = Fulvestrant plasma concentrations in mice
[2] = system: MDA-MB-231, an ER negative human breast cancer tumor model; assay: MDA-MB-231 xenograft efficacy; assay type: in vivo, mice; conditions: GDC-0810 100 mg/kg/day p.o., 29 days
[3] = GDC-0810 mouse pharmacokinetics
T47D ER.WT cells = assay: Cell viability, T47D ER.WT cells; assay type: cell-based; conditions: Homo sapiens, +E2
Protocol: In the presence of 0.1 nM estrogen however, much of this competitive advantage is lost, with WT cells representing 40% ± 0.2% of the total population at day 15 (Figure 7C,D).
Figure 7. […] 4 images per condition were quantified.

CC/C(=C(\c1ccc(O)cc1)c1ccc(OCCN(C)C)cc1)c1ccccc1 [4-OH Tam, 4-hydroxytamoxifen]
IC50 (GR): 1.47 ± 1.18 µM
IC50 (PR-A): 12 ± 4.5 µM

C[C@]12CC[C@@H]3c4ccc(O)cc4C[C@@H](CCCCCCCCC[S+]([O-])CCCC(F)(F)C(F)(F)F)[C@H]3[C@@H]1CC[C@@H]2O (some centres unmarked) [Fulvestrant]
Transcription 3X ERE-LUC Emax (ERα): 4.1 ± 2.6 % E2
IC50 (AR): > 4 µM
Plasma Conc Mean ([1]; 50 mg/kg Days 1, 3 & 8, 25 mg/kg Days 15 & 22, Day 21, Time 0 hr): 15 ng/mL
Plasma Conc Mean ([1]; 200 mg/kg 3x/wk, Day 28, Time 0 hr): 731 ng/mL
Plasma Conc Mean ([1]; 200 mg/kg 3x/wk, Day 57, Time 0 hr): 665 ng/mL
plasma concentrations (exposure) on average ([1]; mice, 200 mg/kg dose, 3 times per week): 12000 to 14000 ng·h/mL

CC/C(=C(/c1ccc(/C=C/C(=O)O)cc1)c1ccc2[nH]ncc2c1)c1ccc(F)cc1Cl [GDC-0810]
Tumor growth response, MDA-MB-231 xenograft [2]: did not exhibit any anti-tumor activity
Oral %F [3]: 61%
Clast ([3]; oral gavage, 10 mg/kg/day): 7 ng/mL
Clast ([3]; oral gavage, 30 mg/kg/day): 13 ng/mL
AUC(0-t) ([3]; oral gavage, 100 mg/kg/day): 94100 ng·h/mL
half-life ([3]; plasma): 2.6 h
Vd ([3]; plasma, intravenous): 1.2 L/kg
clearance ([3]; plasma, intravenous): 11 mL/min/kg
AUC(0-inf) ([3]; plasma, po): 8800 ng·h/mL
Cmax ([3]; plasma, po): 4400 ng/mL
AUC(0-t) ([3]; plasma, po, 10 mg/kg/day): 5500 ng·h/mL
Cmax ([3]; plasma, po, 10 mg/kg/day): 1640 ng/mL
Tmax ([3]; plasma, po, 10 mg/kg/day): 1 h
half-life ([3]; plasma, po, 10 mg/kg/day): 8 h
AUC(0-t) ([3]; plasma, po, 30 mg/kg/day): 21500 ng·h/mL
Cmax ([3]; plasma, po, 30 mg/kg/day): 5330 ng/mL
Tmax ([3]; plasma, po, 30 mg/kg/day): 1 h
half-life ([3]; plasma, po, 30 mg/kg/day): 4 h
AUC(0-t) ([3]; plasma, po, 100 mg/kg/day): 94100 ng·h/mL
Cmax ([3]; plasma, po, 100 mg/kg/day): 9310 ng/mL
Tmax ([3]; plasma, po, 100 mg/kg/day): 8 h
concentration at 24 h ([3]; plasma, po, 100 mg/kg/day): 216 ng/mL
half-life ([3]; plasma, po, 100 mg/kg/day): 3 h
IC50 (T47D ER.WT cells): 0.032 µM
